Test results: ChEMBL document CHEMBL1151438, “In vitro resistance study of rupintrivir, a novel inhibitor of human rhinovirus 3C protease” (Antimicrob Agents Chemother, 2007)

Assays:
rhinovirus B14 [1] = assay: Ratio of EC50 for HRV14 with 3C protease with A121A/V, T129A, T131A, T143P, Y139Y/H mutation infected in human H1-HeLa cells after 11 passages for 65 days to EC50 for wild type HRV14 infected in human H1-HeLa cells; type: functional
rhinovirus B14 [2] = assay: Ratio of EC50 for HRV14 infected in human H1-HeLa cells after 8 passages for 40 days to EC50 for wild type HRV14 infected in human H1-HeLa cells; type: functional
rhinovirus B14 [3] = assay: Ratio of EC50 for HRV14 with 3C protease T129A, T131A, Y139H, T143P mutation infected in human H1-HeLa cells to EC50 for wild type HRV14 infected in human H1-HeLa cells; type: functional
Human rhinovirus sp. [4] = assay: Ratio of EC50 for HRV Hanks infected in human H1-HeLa cells after 9 passage for 59 days to EC50 for wild type HRV Hanks infected in human H1-HeLa cells; type: functional
rhinovirus B14 [5] = assay: Ratio of EC50 for HRV14 infected in human H1-HeLa cells after 1 passage for 6 days to EC50 for wild type HRV14 infected in human H1-HeLa cells; type: functional
rhinovirus A39 [6] = assay: Ratio of EC50 for HRV39 with 3C protease S105S/T, N130K, L136F mutation infected in human H1-HeLa cells after 9 passages for 50 days to EC50 for wild type HRV39 infected in human H1-HeLa cells; type: functional
Human rhinovirus sp. [7] = assay: Ratio of EC50 for HRV Hanks infected in human H1-HeLa cells after 6 passage for 40 days to EC50 for wild type HRV Hanks infected in human H1-HeLa cells; type: functional
Human rhinovirus sp. [8] = assay: Ratio of EC50 for HRV Hanks infected in human H1-HeLa cells after 3 passage for 35 days to EC50 for wild type HRV Hanks infected in human H1-HeLa cells; type: functional
rhinovirus A2 [9] = assay: Antiviral activity against HRV2 with 3C protease N165T mutation infected in human H1-HeLa cells assessed as virus-induced cytopathic effect after 4 passages for 24 days by XTT assay; type: functional, organism-based; settings: Rhinovirus A, 576 h
rhinovirus B14 [10] = assay: Ratio of EC50 for HRV14 with 3C protease T143P mutation infected in human H1-HeLa cells to EC50 for wild type HRV14 infected in human H1-HeLa cells; type: functional
rhinovirus A39 [11] = assay: Antiviral activity against HRV39 with 3C protease […], L136/F mutation infected in human H1-HeLa cells assessed as virus-induced cytopathic effect after 5 passages for 29 days by XTT assay; type: functional, organism-based; settings: Rhinovirus A, 696 h
rhinovirus A2 [12] = assay: Ratio of EC50 for HRV2 infected in human H1-HeLa cells after 2 passages for 10 days to EC50 for wild type HRV2 infected in human H1-HeLa cells; type: functional
rhinovirus A39 [13] = assay: Antiviral activity against HRV39 with 3C protease S105T, N130K, L136F mutation infected in human H1-HeLa cells assessed as virus-induced cytopathic effect after 9 passages for 50 days by XTT assay; type: functional, organism-based; settings: Rhinovirus A
Human rhinovirus sp. [14] = assay: Ratio of EC50 for HRV Hanks infected in human H1-HeLa cells after 2 passage for 17 days to EC50 for wild type HRV Hanks infected in human H1-HeLa cells; type: functional
rhinovirus B14 [15] = assay: Antiviral activity against HRV14 with 3C protease Y139H mutation infected in human H1-HeLa cells assessed as virus-induced cytopathic effect after 3 days by XTT assay; type: functional, organism-based; settings: Rhinovirus B, 72 h
rhinovirus B14 [16] = assay: Ratio of EC50 for HRV14 infected in human H1-HeLa cells after 12 passages for 72 days to EC50 for wild type HRV14 infected in human H1-HeLa cells; type: functional
rhinovirus B14 [17] = assay: Ratio of EC50 for HRV14 with 3C protease Y139H mutation infected in human H1-HeLa cells to EC50 for wild type HRV14 infected in human H1-HeLa cells; type: functional
rhinovirus B14 [18] = assay: Antiviral activity against HRV14 with 3C protease A121A/V, T129A, T131A, T143P, Y139Y/H mutation infected in human H1-HeLa cells assessed as virus-induced cytopathic effect after 11 passages for 65 days by XTT assay; type: functional, organism-based; settings: Rhinovirus B
rhinovirus B14 [19] = assay: Ratio of EC50 for HRV14 infected in human H1-HeLa cells after 2 passages for 11 days to EC50 for wild type HRV14 infected in human H1-HeLa cells; type: functional
rhinovirus A2 [20] = assay: Antiviral activity against HRV2 with 3C protease E3E/G, A103A/V, N165T mutation infected in human H1-HeLa cells assessed as virus-induced cytopathic effect after 9 passages for 62 days by XTT assay; type: functional, organism-based; settings: Rhinovirus A
rhinovirus B14 [21] = assay: Ratio of EC50 for HRV14 infected in human H1-HeLa cells after 10 passages for 55 days to EC50 for wild type HRV14 infected in human H1-HeLa cells; type: functional
rhinovirus B14 [22] = assay: Ratio of EC50 for HRV14 infected in human H1-HeLa cells after 11 passages for 65 days to EC50 for wild type HRV14 infected in human H1-HeLa cells; type: functional
rhinovirus A39 [23] = assay: Ratio of EC50 for HRV39 infected in human H1-HeLa cells after 5 passages for 29 days to EC50 for wild type HRV39 infected in human H1-HeLa cells; type: functional
Human rhinovirus sp. [24] = assay: Antiviral activity against wild type HRV Hanks infected in human H1-HeLa cells assessed as virus-induced cytopathic effect after 4 days by plaque reduction assay; type: functional, organism-based; settings: 96 h
rhinovirus B14 [25] = assay: Ratio of EC50 for HRV14 infected in human H1-HeLa cells after 5 passages for 22 days to EC50 for wild type HRV14 infected in human H1-HeLa cells; type: functional
rhinovirus B14 [26] = assay: Ratio of EC50 for HRV14 with 3C protease T129A mutation infected in human H1-HeLa cells to EC50 for wild type HRV14 infected in human H1-HeLa cells; type: functional
rhinovirus A2 [27] = assay: Ratio of EC50 for HRV2 infected in human H1-HeLa cells after 1 passage for 6 days to EC50 for wild type HRV2 infected in human H1-HeLa cells; type: functional
rhinovirus A2 [28] = assay: Antiviral activity against wild type HRV2 infected in human H1-HeLa cells assessed as virus-induced cytopathic effect after 3 days by XTT assay; type: functional, organism-based; settings: Rhinovirus A, 72 h
rhinovirus A39 [29] = assay: Ratio of EC50 for HRV39 infected in human H1-HeLa cells after 1 passage for 7 days to EC50 for wild type HRV39 infected in human H1-HeLa cells; type: functional
rhinovirus A39 [30] = assay: Ratio of EC50 for HRV39 infected in human H1-HeLa cells after 2 passages for 12 days to EC50 for wild type HRV39 infected in human H1-HeLa cells; type: functional
rhinovirus B14 [31] = assay: Ratio of EC50 for HRV14 infected in human H1-HeLa cells after 4 passages for 17 days to EC50 for wild type HRV14 infected in human H1-HeLa cells; type: functional
rhinovirus A39 [32] = assay: Ratio of EC50 for HRV39 infected in human H1-HeLa cells after 9 passages for 50 days to EC50 for wild type HRV39 infected in human H1-HeLa cells; type: functional
rhinovirus B14 [33] = assay: Ratio of EC50 for HRV14 infected in human H1-HeLa cells after 6 passages for 27 days to EC50 for wild type HRV14 infected in human H1-HeLa cells; type: functional

CCOC(=O)/C=C/[C@H](C[C@@H]1CCNC1=O)NC(=O)[C@@H](CC(=O)[C@@H](NC(=O)c1cc(C)on1)C(C)C)Cc1ccc(F)cc1 [RUPINTRIVIR]
Ratio EC50 (rhinovirus B14 [1]): 16 | Ratio EC50 (rhinovirus B14 [2]): 40 | Ratio EC50 (rhinovirus B14 [3]): 7 | Ratio EC50 (Human rhinovirus sp. [4]): 3 | Ratio EC50 (rhinovirus B14 [5]): 3.5 | Ratio EC50 (rhinovirus A39 [6]): 4 | Ratio EC50 (Human rhinovirus sp. [7]): 3 | Ratio EC50 (Human rhinovirus sp. [8]): 2 | EC50 (rhinovirus A2 [9]): 44 nM | Ratio EC50 (rhinovirus B14 [10]): 1 | EC50 (rhinovirus A39 [11]): 83 nM | Ratio EC50 (rhinovirus A2 [12]): 1 | EC50 (rhinovirus A39 [13]): 94 nM | Ratio EC50 (Human rhinovirus sp. [14]): 2 | EC50 (rhinovirus B14 [15]): 14 nM | Ratio EC50 (rhinovirus B14 [16]): 90 | Ratio EC50 (rhinovirus B14 [17]): 1 | EC50 (rhinovirus B14 [18]): 335 nM | Ratio EC50 (rhinovirus B14 [19]): 3.5 | EC50 (rhinovirus A2 [20]): 140 nM | Ratio EC50 (rhinovirus B14 [21]): 90 | Ratio EC50 (rhinovirus B14 [22]): 90 | Ratio EC50 (rhinovirus A39 [23]): 6 | EC50 (Human rhinovirus sp. [24]): 19 nM | Ratio EC50 (rhinovirus B14 [25]): 20 | Ratio EC50 (rhinovirus B14 [26]): 1 | Ratio EC50 (rhinovirus A2 [27]): 1 | EC50 (rhinovirus A2 [28]): 30 nM | Ratio EC50 (rhinovirus A39 [29]): 3 | Ratio EC50 (rhinovirus A39 [30]): 4 | Ratio EC50 (rhinovirus B14 [31]): 10 | Ratio EC50 (rhinovirus A39 [32]): 6 | Ratio EC50 (rhinovirus B14 [33]): 20
